The supplement of paper PMC10307832

Assays:
Assay in all cases: relative viability (nuclei count vs DMSO), 5 days (fraction); higher = more cells survive
[1] = compound: CN(c1ncccc1CNc1nc(Nc2ccc3c(c2)CC(=O)N3)ncc1C(F)(F)F)S(C)(=O)=O + CC(=O)c1c(C)c2cnc(Nc3ccc(N4CCNCC4)cn3)nc2n(C2CCCC2)c1=O [Palbociclib] (partner 0.5 µM)
Procedure, shortened: (§1)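 A single step with final 0.05% Triton X-100, 1% formaldehyde and 1 ug/ml Hoechst fixed the cells and stained nuclei 5 days after treatment. Lung cancer cell lines in 1536-well plates had been treated by pin tool the day after seeding with one drug alone or a fixed anchor-drug dose plus five library-drug doses (not always all listed) in √10 steps, and nuclei were counted on 4× images. Relative viability is the ratio of nuclei in treated wells to nuclei in vehicle wells, taken as the median of duplicate plates.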

[2] = compound: CN(c1ncccc1CNc1nc(Nc2ccc3c(c2)CC(=O)N3)ncc1C(F)(F)F)S(C)(=O)=O + Cc1nc(NC(=O)N2CCC[C@H]2C(N)=O)sc1-c1ccnc(C(C)(C)C(F)(F)F)c1 [Alpelisib] (partner 2 µM)
Procedure, shortened: as §1

[3] = compound: CN(c1ncccc1CNc1nc(Nc2ccc3c(c2)CC(=O)N3)ncc1C(F)(F)F)S(C)(=O)=O + Cc1nc(Nc2ncc(C(=O)Nc3c(C)cccc3Cl)s2)cc(N2CCN(CCO)CC2)n1 [Dasatinib] (partner 0.075 µM)
Procedure, shortened: as §1

[4] = compound: CN(c1ncccc1CNc1nc(Nc2ccc3c(c2)CC(=O)N3)ncc1C(F)(F)F)S(C)(=O)=O + CC(C)C[C@H](NC(=O)[C@H](Cc1ccccc1)NC(=O)c1cnccn1)B(O)O [Bortezomib] (partner 0.002 µM)
Procedure, shortened: as §1

| Cell Line | relative viability ([1]; first compound 0.01 µM) | relative viability ([1]; first compound 0.03162 µM) | relative viability ([1]; first compound 0.1 µM) | relative viability ([1]; first compound 0.3162 µM) | relative viability ([1]; first compound 1 µM) | relative viability ([2]; first compound 0.01 µM) | relative viability ([2]; first compound 0.03162 µM) | relative viability ([2]; first compound 0.1 µM) | relative viability ([2]; first compound 0.3162 µM) | relative viability ([2]; first compound 1 µM) | relative viability ([3]; first compound 0.01 µM) | relative viability ([3]; first compound 0.03162 µM) | relative viability ([3]; first compound 0.1 µM) | relative viability ([3]; first compound 0.3162 µM) | relative viability ([3]; first compound 1 µM) | relative viability ([4]; first compound 0.01 µM) | relative viability ([4]; first compound 0.03162 µM) | relative viability ([4]; first compound 0.1 µM) | relative viability ([4]; first compound 0.3162 µM) | relative viability ([4]; first compound 1 µM) |
| --- | --- | --- | --- | --- | --- | --- | --- | --- | --- | --- | --- | --- | --- | --- | --- | --- | --- | --- | --- | --- |
| NCI-H1395 | 0.649 | 0.602 | 0.698 | 0.655 | 0.596 | 0.996 | 1.08 | 0.997 | 1.06 | 1.06 | 0.461 | 0.374 | 0.359 | 0.414 | 0.386 | – | – | – | – | – |
| SW 900 | 0.513 | 0.48 | 0.52 | 0.52 | 0.456 | – | – | – | – | – | 0.559 | 0.613 | 0.477 | 0.456 | 0.403 | – | – | – | – | – |
| NCI-H460 | 0.147 | 0.179 | 0.148 | 0.21 | 0.15 | 0.519 | 0.577 | 0.487 | 0.443 | 0.508 | 0.62 | 0.505 | 0.462 | 0.456 | 0.436 | 1.18 | 1.39 | 1.13 | 1.07 | 1.13 |
| A549 | – | – | – | – | – | 0.754 | 0.905 | 0.726 | 0.906 | 0.712 | – | – | – | – | – | – | – | – | – | – |
| IA-LM | – | – | – | – | – | 0.631 | 0.884 | 0.637 | 0.649 | 0.688 | – | – | – | – | – | 0.807 | 0.886 | 0.727 | 0.877 | 0.666 |
| EKVX | 0.369 | 0.372 | 0.359 | 0.285 | 0.352 | 0.771 | 0.905 | 0.859 | 0.812 | 0.864 | 0.464 | 0.425 | 0.447 | 0.411 | 0.347 | 1.02 | 1.19 | 1.11 | 0.923 | 0.83 |
| ChaGo-K-1 | 0.942 | 0.955 | 0.917 | 0.785 | 0.877 | – | – | – | – | – | 0.656 | 0.531 | 0.52 | 0.614 | 0.531 | 1.01 | 0.803 | 1.11 | – | 1.09 |
| NCI-H1755 | 0.449 | 0.473 | 0.452 | 0.44 | 0.434 | 0.904 | 0.946 | 0.94 | 0.82 | 0.848 | 0.414 | 0.412 | 0.329 | 0.365 | 0.325 | 0.985 | 0.967 | 0.983 | 0.849 | 0.826 |
| NCI-H2228 | 0.836 | 0.878 | 0.881 | 0.749 | 0.6 | 0.634 | 0.766 | 0.857 | 0.633 | 0.701 | 0.549 | 0.433 | 0.42 | 0.404 | 0.339 | 0.817 | 1.24 | 1.05 | 1.06 | 1.02 |
| NCI-H2087 | 0.23 | 0.277 | 0.258 | 0.252 | 0.279 | 1.14 | 1.18 | 1.11 | 1.12 | 1.19 | 0.828 | 0.795 | 0.61 | 0.542 | 0.451 | 1.13 | 0.699 | 0.882 | 0.807 | 0.768 |
